In US20230141101A1, “PDE4 INHIBITOR COMPOUND AND MEDICAL USE THEREOF” (Suzhou Longbotai Pharmaceuticals Co., Ltd., priority 2020, published 2023):

Legend:
Assay type in all cases: biochemical
Details in all cases: 20 nM
PDE4D2 = PDE4D2 (Homo sapiens, UniProt Q08499); experiment: PDE4 inhibitory activity assay (FAM-cAMP enzymatic reaction), PDE4D2
Summary of the method: (§1)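 Each isoform is incubated with test compound for 15 min at room temperature before FAM-cAMP substrate starts a 30-min reaction.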

PDE4A1A = target: T1, PDE4A1A (Homo sapiens, UniProt P27815); experiment: PDE4 inhibitory activity assay (FAM-cAMP enzymatic reaction), PDE4A1A
T1 construct: purchased BPS 60040
T1 sequence (P27815 1-647 isoform P27815-4): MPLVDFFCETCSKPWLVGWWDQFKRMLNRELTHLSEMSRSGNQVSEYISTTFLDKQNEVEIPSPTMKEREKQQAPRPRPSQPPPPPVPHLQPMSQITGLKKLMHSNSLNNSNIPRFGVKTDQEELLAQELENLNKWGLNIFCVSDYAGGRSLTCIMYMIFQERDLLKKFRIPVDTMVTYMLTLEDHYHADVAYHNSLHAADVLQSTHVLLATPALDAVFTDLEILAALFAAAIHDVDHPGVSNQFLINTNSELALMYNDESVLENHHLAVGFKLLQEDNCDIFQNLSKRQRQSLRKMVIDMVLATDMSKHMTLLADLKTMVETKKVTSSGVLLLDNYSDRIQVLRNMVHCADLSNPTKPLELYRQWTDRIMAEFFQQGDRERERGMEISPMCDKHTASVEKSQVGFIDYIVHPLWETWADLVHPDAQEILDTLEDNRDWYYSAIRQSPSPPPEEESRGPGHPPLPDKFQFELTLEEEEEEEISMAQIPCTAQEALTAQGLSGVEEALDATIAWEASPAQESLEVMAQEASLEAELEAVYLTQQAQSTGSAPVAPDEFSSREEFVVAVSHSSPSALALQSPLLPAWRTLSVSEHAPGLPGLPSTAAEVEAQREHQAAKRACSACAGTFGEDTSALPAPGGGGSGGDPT
Summary of the method: as §1

PDE4B1 = target: T2, PDE4B1 (Homo sapiens, UniProt Q07343); experiment: PDE4 inhibitory activity assay (FAM-cAMP enzymatic reaction), PDE4B1
T2 construct: purchased BPS 60041
T2 sequence (Q07343 whole entry): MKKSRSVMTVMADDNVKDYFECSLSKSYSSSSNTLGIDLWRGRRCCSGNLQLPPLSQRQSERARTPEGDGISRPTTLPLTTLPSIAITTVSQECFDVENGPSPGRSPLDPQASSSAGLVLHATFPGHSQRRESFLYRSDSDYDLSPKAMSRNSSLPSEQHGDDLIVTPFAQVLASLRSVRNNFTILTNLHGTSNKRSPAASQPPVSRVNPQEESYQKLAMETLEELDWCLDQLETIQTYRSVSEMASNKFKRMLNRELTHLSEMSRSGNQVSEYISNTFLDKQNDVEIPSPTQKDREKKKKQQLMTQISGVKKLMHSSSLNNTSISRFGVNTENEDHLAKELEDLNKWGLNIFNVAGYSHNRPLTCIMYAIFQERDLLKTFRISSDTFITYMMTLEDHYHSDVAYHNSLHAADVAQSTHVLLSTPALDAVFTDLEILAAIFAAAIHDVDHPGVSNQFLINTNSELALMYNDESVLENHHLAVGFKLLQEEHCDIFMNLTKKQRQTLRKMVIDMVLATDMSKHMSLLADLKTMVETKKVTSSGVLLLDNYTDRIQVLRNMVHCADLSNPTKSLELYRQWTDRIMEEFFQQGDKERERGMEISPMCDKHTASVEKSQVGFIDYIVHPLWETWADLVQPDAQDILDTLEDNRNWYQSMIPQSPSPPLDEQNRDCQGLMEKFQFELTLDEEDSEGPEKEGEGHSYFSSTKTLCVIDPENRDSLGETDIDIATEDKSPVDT
Summary of the method: as §1

Chain of PDE4D2 (Q08499 303-809): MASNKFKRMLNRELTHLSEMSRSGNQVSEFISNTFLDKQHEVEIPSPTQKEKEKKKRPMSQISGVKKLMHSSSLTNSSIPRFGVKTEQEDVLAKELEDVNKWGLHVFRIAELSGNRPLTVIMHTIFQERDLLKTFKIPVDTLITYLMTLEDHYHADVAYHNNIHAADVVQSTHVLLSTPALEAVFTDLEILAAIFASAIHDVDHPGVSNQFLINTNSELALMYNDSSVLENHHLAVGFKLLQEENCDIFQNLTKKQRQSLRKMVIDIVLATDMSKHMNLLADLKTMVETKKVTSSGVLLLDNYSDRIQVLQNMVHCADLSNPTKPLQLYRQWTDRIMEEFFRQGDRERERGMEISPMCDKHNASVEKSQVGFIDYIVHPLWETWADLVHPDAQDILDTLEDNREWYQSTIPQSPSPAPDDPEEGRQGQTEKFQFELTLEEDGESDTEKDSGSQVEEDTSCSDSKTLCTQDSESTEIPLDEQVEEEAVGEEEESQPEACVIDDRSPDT

Row | SMILES | PDE4 D2 inhibitory effect at 20 nM (PDE4D2) | PDE4 A1 inhibitory effect at 20 nM (PDE4A1A) | PDE4 B1 inhibitory effect at 20 nM (PDE4B1)
1 | CCOc1nc([C@@H](CS(C)(=O)=O)n2c(=O)n(C)c3cc(-c4c(F)cccc4F)cnc32)ccc1OC [Ex. 89, (S)-6-(2,6-difluorophenyl)-3-(1-(6-ethoxy-5-methoxypyridin-2-yl)-2-(methylsulfonyl)ethyl)-1-methyl-1H-imidazo[4,5-b]pyridin-2(3H)-one] | + | + | +
2 | CCOc1nc([C@@H](CS(C)(=O)=O)n2c(=O)[nH]c3cc(-c4cccc(F)c4F)cnc32)ccc1OC [Ex. 90, (S)-6-(2,3-difluorophenyl)-3-(1-(6-ethoxy-5-methoxypyridin-2-yl)-2-(methylsulfonyl)ethyl)-1H-imidazo[4,5-b]pyridin-2(3H)-one] | + | + | +
3 | CCOc1nc([C@@H](CS(C)(=O)=O)n2c(=O)n(C)c3cc(-c4cccc(F)c4F)cnc32)ccc1OC [Ex. 91, (S)-6-(2,3-difluorophenyl)-3-(1-(6-ethoxy-5-methoxypyridin-2-yl)-2-(methylsulfonyl)ethyl)-1-methyl-1H-imidazo[45-b]pyridin-2(3H)-one] | + | + | +
4 | CCOc1nc([C@@H](CS(C)(=O)=O)n2c(=O)[nH]c3cc(-c4cc(F)ccc4F)cnc32)ccc1OC [Ex. 92, (S)-6-(2,5-difluorophenyl)-3-(1-(6-ethoxy-5-methoxypyridin-2-yl)-2-(methylsulfonyl)ethyl)-1H-imidazo[4,5-b]pyridin-2(3H)-one] | + | + | +
5 | CCOc1nc([C@@H](CS(C)(=O)=O)n2c(=O)n(C)c3cc(-c4cc(F)ccc4F)cnc32)ccc1OC [Ex. 93, (S)-6-(2,5-difluorophenyl)-3-(1-(6-ethoxy-5-methoxypyridin-2-yl)-2-(methylsulfonyl)ethyl)-1-methyl-1H-imidazo[4,5-b]pyridin-2(3H)-one] | + | + | +
6 | CCOc1nc([C@@H](CS(C)(=O)=O)n2c(=O)[nH]c3cc(-c4ccc(F)cc4F)cnc32)ccc1OC [Ex. 94, (S)-6-(2,4-difluorophenyl)-3-(1-(6-ethoxy-5-methoxypyridin-2-yl)-2-(methylsulfonyl)ethyl)-1H-imidazo[4,5-b]pyridin-2(3H)-one] | + | + | +
7 | CCOc1nc([C@@H](CS(C)(=O)=O)n2c(=O)n(C)c3cc(-c4ccc(F)cc4F)cnc32)ccc1OC [Ex. 95, (S)-6-(2,4-difluorophenyl)-3-(1-(6-ethoxy-5-methoxypyridin-2-yl)-2-(methylsulfonyl)ethyl)-1-methyl-1H-imidazo[4,5-b]pyridin-2(3H)-one] | + | + | +
8 | CCOc1nc([C@@H](CS(C)(=O)=O)n2c(=O)[nH]c3cc(-c4cc(F)c(F)cc4F)cnc32)ccc1OC [Ex. 96, (S)-6-(2,4,5-trifluorophenyl)-3-(1-(6-ethoxy-5-methoxypyridin-2-yl)-2-(methylsulfonyl)ethyl)-1H-imidazo[4,5-b]pyridin-2(3H)-one] | + | + | +
9 | CCOc1nc([C@@H](CS(C)(=O)=O)n2c(=O)n(C)c3cc(-c4cc(F)c(F)cc4F)cnc32)ccc1OC [Ex. 97, (S)-6-(2,4,5-trifluorophenyl)-3-(1-(6-ethoxy-5-methoxypyridin-2-yl)-2-(methylsulfonyl)ethyl)-1-methyl-1H-imidazo[4,5-b]pyridin-2(3H)-one] | + | + | +
10 | CCOc1nc([C@H](CS(C)(=O)=O)n2c(=O)[nH]c3cc(-c4cc(F)ccc4F)cnc32)ccc1OC [Ex. 98, (R)-6-(2,5-difluorophenyl)-3-(1-(6-ethoxy-5-methoxypyridin-2-yl)-2-(methylsulfonyl)ethyl)-1H-imidazo[4,5-b]pyridin-2(3H)-one] | − | − | −
11 | CCOc1nc([C@@H](CS(C)(=O)=O)n2c(=O)[nH]c3cc(-c4ccc(C)cc4C)cnc32)ccc1OC [Ex. 99, (S)-6-(2,4-dimethylphenyl)-3-(1-(6-ethoxy-5-methoxypyridin-2-yl)-2-(methylsulfonyl)ethyl)-1H-imidazo[4,5-b]pyridin-2(3H)-one] | + | + | +
12 | CCOc1nc([C@@H](CS(C)(=O)=O)n2c(=O)n(C)c3cc(-c4ccc(C)cc4C)cnc32)ccc1OC [Ex. 100, (S)-6-(2,4-dimethylphenyl)-3-(1-(6-ethoxy-5-methoxypyridin-2-yl)-2-(methylsulfonyl)ethyl)-1-methyl-1H-imidazo[4,5-b]pyridin-2(3H)-one] | + | + | +
13 | CCOc1nc([C@@H](CS(C)(=O)=O)n2c(=O)[nH]c3cc(-c4cc(C)ccc4C)cnc32)ccc1OC [Ex. 101, (S)-6-(2,5-dimethylphenyl)-3-(1-(6-ethoxy-5-methoxypyridin-2-yl)-2-(methylsulfonyl)ethyl)-1H-imidazo[4,5-b]pyridin-2(3H)-one] | + | + | +
14 | CCOc1nc([C@@H](CS(C)(=O)=O)n2c(=O)n(C)c3cc(-c4cc(C)ccc4C)cnc32)ccc1OC [Ex. 102, (S)-6-(2,5-dimethylphenyl)-3-(1-(6-ethoxy-5-methoxypyridin-2-yl)-2-(methylsulfonyl)ethyl)-1-methyl-1H-imidazo[4,5-b]pyridin-2(3H)-one] | + | + | +
15 | CCOc1nc([C@@H](CS(C)(=O)=O)n2c(=O)[nH]c3cc(-c4cccc(C)c4C)cnc32)ccc1OC [Ex. 103, (S)-6-(2,3-dimethylphenyl)-3-(1-(6-ethoxy-5-methoxypyridin-2-yl)-2-(methylsulfonyl)ethyl)-1H-imidazo[4,5-b]pyridin-2(3H)-one] | + | + | +
16 | CCOc1nc([C@@H](CS(C)(=O)=O)n2c(=O)n(C)c3cc(-c4cccc(C)c4C)cnc32)ccc1OC [Ex. 104, (S)-6-(2,3-dimethylphenyl)-3-(1-(6-ethoxy-5-methoxypyridin-2-yl)-2-(methylsulfonyl)ethyl)-1-methyl-1H-imidazo[4,5-b]pyridin-2(3H)-one] | + | + | +
17 | CCOc1nc([C@@H](CS(C)(=O)=O)n2c(=O)[nH]c3cc(-c4c(C)cccc4C)cnc32)ccc1OC [Ex. 105, (S)-6-(2,6-dimethylphenyl)-3-(1-(6-ethoxy-5-methoxypyridin-2-yl)-2-(methylsulfonyl)ethyl)-1H-imidazo[4,5-b]pyridin-2(3H)-one] | + | + | +
18 | CCOc1nc([C@@H](CS(C)(=O)=O)n2c(=O)n(C)c3cc(-c4c(C)cccc4C)cnc32)ccc1OC [Ex. 106, (S)-6-(2,6-dimethylphenyl)-3-(1-(6-ethoxy-5-methoxypyridin-2-yl)-2-(methylsulfonyl)ethyl)-1-methyl-1H-imidazo[4,5-b]pyridin-2(3H)-one] | + | + | +
19 | CCOc1nc([C@@H](CS(C)(=O)=O)n2c(=O)[nH]c3cc(-c4ccc(F)cc4C)cnc32)ccc1OC [Ex. 107, (S)-6-(4-fluoro-2-methylphenyl)-3-(1-(6-ethoxy-5-methoxypyridin-2-yl)-2-(methylsulfonyl)ethyl)-1H-imidazo[4,5-b]pyridin-2(3H)-one] | + | + | +
20 | CCOc1nc([C@@H](CS(C)(=O)=O)n2c(=O)n(C)c3cc(-c4ccc(F)cc4C)cnc32)ccc1OC [Ex. 108, (S)-6-(4-fluoro-2-methylphenyl)-3-(1-(6-ethoxy-5-methoxypyridin-2-yl)-2-(methylsulfonyl)ethyl)-1-methyl-1H-imidazo[4,5-b]pyridin-2(3H)-one] | + | + | +
21 | CCOc1nc([C@@H](CS(C)(=O)=O)n2c(=O)[nH]c3cc(-c4cc(F)ccc4C)cnc32)ccc1OC [Ex. 109, (S)-6-(5-fluoro-2-methylphenyl)-3-(1-(6-ethoxy-5-methoxypyridin-2-yl)-2-(methylsulfonyl)ethyl)-1H-imidazo[4,5-b]pyridin-2(3H)-one] | + | + | +
22 | CCOc1nc([C@@H](CS(C)(=O)=O)n2c(=O)n(C)c3cc(-c4cc(F)ccc4C)cnc32)ccc1OC [Ex. 110, (S)-6-(5-fluoro-2-methylphenyl)-3-(1-(6-ethoxy-5-methoxypyridin-2-yl)-2-(methylsulfonyl)ethyl)-1-methyl-1H-imidazo[4,5-b]pyridin-2(3H)-one] | + | + | +
